Results on three compounds are retold here after patent US9803450B2, “Use of oligo-quaternary compositions to increase scale inhibitor lifetime in a subterranean formation” (Ecolab USA Inc., priority 2012, dated 2017).

The nature of data set [1]: Compatibility test of scale inhibitors with Product A in synthetic brine. The class given is physicochemical. As to conditions: 10% scale inhibitor solution mixed with 10% Product A solution in synthetic brine. Further details: key: C—Clear; P—Precipitate. The source says: Individual solutions (Solutions 1B through 1G) of 10% Product B, C, D, E, F and G, respectively, in a synthetic brine (see the table below showing the synthetic brine composition) were mixed with a 10% solution (Solution 2) of Product A in the synthetic brine. The two sets of solutions were mixed with Solution 2 (i. e., each of Solutions 1B through 1G were mixed with Solution 2) at ratios of 10:90, 30:70, 50:50, 70:30 and 90:10 to indicate that no precipitate would form at any concentration in the mixing concentration range from 10:90 to 90:10. These compatibility screening tests indicate that it is unlikely for any incompatibility to be experienced during deployment and flow back of a squeeze treatment. Any incompatibilities under ambient conditions were observed visually from solution clarity and/or precipitate. The samples were then heated to the test temperature (80° C.) and any further incompatibilities after 2 and 24 hours recorded.

Data set [2] in a line: Coreflood. As to conditions: flow back versus pre-treatment permeability. The procedure: Two corefloods were carried out simultaneously on two Bandera outcrop cores (1.5″ diameter by 3″ length), using a Scaled Solutions dual coreflood apparatus. The composition of these cores is set out in the table below:
Both cores were wrapped with PTFE tape and cased in heat shrink tubing prior to insertion into a Viton sleeve and mounted in a Hassler type core holder with a confining pressure of 1200 psi. Both cores were then flushed with synthetic brine at 1 mL/min for at least 2 hours and until the differential pressure was stable. Brine was flushed at 0.5 mL/min overnight.
Both cores were saturated with synthetic brine under ambient conditions in the forward direction at 1 mL/min for 10 minutes, 2 mL/min for 10 minutes, 3 mL/min for 10 minutes, and 4 mL/min for 2 hours and until the differential pressure was stable. After a stable differential pressure was achieved, the permeability to brine was measured in the forward flow by flooding at 4, 3, 2, 1 mL/min at room temperature.
Brine was then injected into both cores in the forward direction at 1 mL/min until the oven reached a temperature of 80° C. […] Following plug saturation, the permeability of each core to synthetic brine was measured in the forward flow by flooding at 4, 3, 2, and 1 mL/min at 80° C. […]
Both cores were injected with synthetic brine at 2 mL/min with effluent samples being collected. The samples were analyzed by ICP. […]

In data set [3] the test system is Fathead Minnow. In words: Toxicity, LC50 Fathead Minnow. Conditions: in vivo. The method, then: Product A was evaluated for toxicity using various tests.
Where [4] appears, read: ratio printed 10:90 (fifth column).
Where [5] appears, read: ratio printed 30:70 (fourth column).

Turning to DETA phosphonate [Product C], the “Clarity of Mixed Solutions” value in data set [1] (ratio 10:90 (first column)), in data set [1] (ratio 30:70 (second column)), in data set [1] (ratio 50:50), in data set [1] (setting [4]) and in data set [1] (setting [5]) was “C” in each case.

Consider `O=P(O)(O)CN(CCCCCCN(CP(=O)(O)O)CP(=O)(O)O)CCCCCCN(CP(=O)(O)O)CP(=O)(O)O` [Product B, BHMT phosphonate], for which the “Clarity of Mixed Solutions” value in data set [1] (ratio 10:90 (first column)), in data set [1] (ratio 30:70 (second column)), in data set [1] (ratio 50:50), in data set [1] (setting [4]) and in data set [1] (setting [5]) was “C” in each case. Further, the “Permeability Recovery” value in data set [2] and in data set [2] (listed as Brine/10% Product B) was 75% in each case.

Consider `C[N+](C)(C)CC(O)C[N+](C)(C)C.[Cl-].[Cl-]` [Product A, 1,3-propandiaminium, 2-hydroxy-N,N,N,N′,N′,N′-hexamethyl-, dichloride], for which, in data set [3], the “LC50 Fathead Minnow” value was >1,000 mg/L.
